# Reference: EP4620954A1, “CDK2 INHIBITOR, PREPARATION METHOD THEREFOR, AND USE THEREOF” (Shandong Luye Pharmaceutical Co., Ltd., priority 2022, dated 2024)
# Like-named read-outs stand apart in the source and are kept apart here.
# Key:
# HCT116 cells = assay: Antagonistic effect assay against HCT116 cell proliferation (CellTitle-Glo); assay type: cell-based; conditions: Homo sapiens, HCT-116, 72 h treatment, 0.01-10.00 µM, read-out: Antiproliferative IC50
# Protocol: Frozen HCT116 cells were rapidly transferred from liquid nitrogen to a 37 °C water bath and rapidly shaken for thawing. The cell suspension was transferred to a 15 mL centrifuge tube and centrifuged at 1500 rpm for 5 min, and the supernatant was discarded. The cell pellet was resuspended in RPMI-1640 complete medium (containing 10% fetal bovine serum and 1% penicillin/streptomycin) and transferred to a cell culture dish containing 10 mL of medium. The cells were cultured in an incubator at 37 °C/5% CO2. The cells were passaged after adhesion to the wall.
# HCT116 cells in the logarithmic growth phase and in good condition were taken, digested with a trypsin solution, resuspended in a certain amount of RPMI-1640 complete medium to form a single-cell suspension, counted on a cell counting plate, and seeded into a 96-well white plate at a density of 800 cells/well. The plate was left to stand for 5 min and then incubated in an incubator at 37 °C/5% CO2 overnight. The next day, the cells were treated with the compound at different concentrations, and the control group was treated with DMSO at the corresponding concentration. The compound, dissolved in DMSO, was diluted in RPMI-1640 complete medium at a ratio of 1:1000 to obtain final concentrations of 10.00 µM, 3.33 µM, 1.11 µM, 0.37 µM, 0.12 µM, 0.04 µM, and 0.01 µM. Each group was set up with 3 replicate wells, and 100 µL of the treatment solution was added to each well. The plate was incubated in an incubator at 37 °C/5% CO2 for 72 h.
# After 72 h of treatment, the CellTitle-Glo assay was performed. 100 µL of CellTitle-Glo solution was added to each well of the control and treatment groups. The plate was mixed on an oscillator for 2 min to induce cell lysis. The 96-well plate was incubated at room temperature for 10 min to stabilize the luminescence signal value. The luminescence signal was measured using a microplate reader. The DMSO-treated cell group was used as the control group, and 50% inhibitory concentration (IC50) was calculated according to the median effect equation as follows: [formula]
# The IC50 values of the compounds were calculated using GraphPad Prism nonlinear fitting equation. Table 2. Results for the inhibitory effect of the compounds of the present disclosure on HCT116 cell proliferation
# CDK2/Cyclin E1 = molecular target: T1, CDK2/Cyclin E1 (Homo sapiens, UniProt P24941); assay: CDK2 kinase antagonistic activity assay (TR-FRET); assay type: biochemical
# T1 construct: purchased Invitrogen PV6296
# Protocol: (§1) Compounds were dissolved in DMSO and serially diluted 3-fold to generate 11 concentrations. 100 nL of each compound was added to 384-well plates, followed by the addition of 5 µL of 2× CDK2/Cyclin E1 or CDK1/Cyclin B enzyme mixed solution. 5 µL of buffer (50 mM Hepes (pH 7.5), 10 mM MgCl2, 1 mM EDTA, 0.01% Brij-35, 2 mM DTT (prepared freshly)) was added to the complete inhibition control wells. The plates were centrifuged at 1000 rpm for 30 s and incubated at 23 °C for 15 min. Then, 5 µL of 2× MLight-MBP peptide (containing 10 µM ATP) was added to each well of each assay plate. The plates were centrifuged again at 1000 rpm for 30 s and incubated at 23 °C for 90 min.
# After the incubation was completed, the reaction was stopped with a detection buffer containing 15 mM EDTA and 2 nM Eu-anti-P-MBP antibody. After centrifugation at 1000 rpm for about 1 min, the plates were incubated at 23 °C for 60 min and read on Perkin Elmer Envision. The TR-FRET ratio (value at 665 nm/value at 615 nm) was automatically calculated by Envision.
# (§2) The IC50 values of the compounds were calculated using GraphPad Prism nonlinear fitting equation. Table 1. Kinase activity assay
# [1] = In-vitro liver microsomal stability, rat; assay type: in vitro ADME; conditions: SD rat liver microsomes 0.5 mg/mL, 1 µM, NADPH 1 mM, 37 °C
# Protocol: (§3) Method: The metabolic stability of test substances was evaluated by using human, dog, and SD rat liver microsomes. The test substances were incubated with liver microsomes from different species and NADPH in a water bath at 37 °C. In the incubation system, the final concentration of the test or control sample was 1 µM, the final concentration of liver microsomes was 0.5 mg/mL, the final concentration of NADPH was 1 mM, and the final concentration of MgCl2 was 3 mM. At designated time points (5 min, 10 min, 20 min, 30 min, and 60 min), the reaction was stopped by adding a cold acetonitrile solution containing tolbutamide (at a concentration of 200 ng/mL) as an internal standard. For the 0-min sample, the stop solution was added before the addition of the NADPH working solution. Testosterone and dextromethorphan were used as positive control samples in the same conditions to assess the stability and reliability of the system. After sample pretreatment, semiquantitative analysis was performed using the LC-MS/MS method. The retention times of the analytes and internal standard, the acquisition of chromatograms and the integration of chromatograms were processed using software Analyst (AB Sciex, Framingham, Massachusetts, USA). The remaining percentage of the test samples after 60 min of incubation was calculated, and the test results are shown in Table 3. Table 3. Test data for the compounds of the present disclosure in human, dog, and rat liver microsomes
# [2] = In-vitro liver microsomal stability, human; assay type: in vitro ADME; conditions: human liver microsomes 0.5 mg/mL, 1 µM, NADPH 1 mM, 37 °C
# Protocol: as §3
# [3] = In-vitro liver microsomal stability, dog; assay type: in vitro ADME; conditions: dog liver microsomes 0.5 mg/mL, 1 µM, NADPH 1 mM, 37 °C
# Protocol: as §3
# CDK1/Cyclin B = molecular target: T2, CDK1/Cyclin B (Homo sapiens, UniProt P06493); assay: CDK1 kinase activity assay (TR-FRET); assay type: biochemical
# T2 construct: purchased Invitrogen PR4768C
# T2 sequence (P06493 whole entry): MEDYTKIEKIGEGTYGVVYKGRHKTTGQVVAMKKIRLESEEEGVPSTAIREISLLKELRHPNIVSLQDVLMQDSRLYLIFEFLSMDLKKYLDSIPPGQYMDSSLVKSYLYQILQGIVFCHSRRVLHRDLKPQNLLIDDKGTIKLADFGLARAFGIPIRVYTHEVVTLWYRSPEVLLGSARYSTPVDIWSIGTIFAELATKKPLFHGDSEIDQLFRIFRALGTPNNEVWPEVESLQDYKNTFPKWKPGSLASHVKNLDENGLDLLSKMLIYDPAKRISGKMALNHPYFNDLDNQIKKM
# T2 sequence (P14635 whole entry partner): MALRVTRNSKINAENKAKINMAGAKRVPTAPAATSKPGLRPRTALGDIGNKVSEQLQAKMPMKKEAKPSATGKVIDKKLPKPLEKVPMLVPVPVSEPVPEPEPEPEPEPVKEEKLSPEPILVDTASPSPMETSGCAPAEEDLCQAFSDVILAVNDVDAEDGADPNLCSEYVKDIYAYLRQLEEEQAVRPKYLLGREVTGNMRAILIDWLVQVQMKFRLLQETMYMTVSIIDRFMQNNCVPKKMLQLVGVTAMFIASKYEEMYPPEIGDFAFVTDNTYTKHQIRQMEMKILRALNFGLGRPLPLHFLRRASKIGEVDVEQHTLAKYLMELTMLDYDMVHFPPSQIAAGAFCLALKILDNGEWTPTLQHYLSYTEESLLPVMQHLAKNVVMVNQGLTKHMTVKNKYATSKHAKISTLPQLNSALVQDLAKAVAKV
# Protocol: as §1
# After the incubation was completed, the reaction was stopped with a detection buffer containing 15 mM EDTA and 2 nM Eu-anti-P-MBP antibody. After centrifugation at 1000 rpm for about 1 min, the plates were incubated at 23 °C for 60 min and read on Perkin Elmer Envision.
# as §2
# [4] = Permeability and transporter substrate evaluation, Caco-2 monolayer; assay type: in vitro ADME; conditions: human, Caco-2, 2.00 µM, 120 min
# Protocol: Cell: Caco-2 cells Instrument: water purification equipment, ELGA LabWate; biosafety cabinet, Nuaire; thermostatic CO2 incubator, Thermo; microplate reader, PerkinElmer; LC-MS/MS, AB SCIEX. Method: The purpose of this study was to determine the two-way permeability of the compounds and evaluate whether they are effluxed and transported by P-glycoprotein (P-gp) using a Caco-2 monolayer cell model. In the experiment, Caco-2 cells were seeded into a 96-well cell plate and cultured for 24 consecutive days for the transport experiment. The compounds were administered bidirectionally at a concentration of 2.00 µM, with or without verapamil. After 120 min of incubation, the samples at the apical end A and the basal end B were collected. The content of the test samples in each sample was measured using the liquid chromatography-tandem mass spectrometry (LC-MS/MS) method. The apparent permeability coefficient and the efflux rate were calculated. Two experimental systems were used successively in this part, with the reference compound (PF-07104091) included. Table 4. Permeability test results
# [5] = TR-FRET, peptide mix containing 10 µM ATP, 90 min at 23 °C, read-out: CDK2/Cyclin E1 IC50
# [6] = Caco-2, Table 5 experimental system
# [7] = Caco-2, Table 4 experimental system
# [8] = TR-FRET, peptide mix containing 10 µM ATP, 90 min at 23 °C, read-out: CDK1/Cyclin B1 IC50
SMILES,IC50 (CDK2/Cyclin E1; [5]),IC50 (CDK1/Cyclin B; [8]),IC50 (HCT116 cells),also measured
CC(C)NC(=O)O[C@@H]1CC[C@H](c2cc(Nc3ccc(N4CCN(CC(F)F)CC4)cc3)n[nH]2)C1 [Compound 127],12.5 nM,,9800 nM,
Cn1nc(CS(C)(=O)=O)cc1C(=O)Nc1cc([C@H]2CC[C@@H](OC(=O)N3CCC3(C)C)C2)[nH]n1 [Compound 16],0.16 nM,,847 nM,IC50 (CDK1/Cyclin B): 3.07 nM
CC(C)NC(=O)O[C@@H]1CC[C@H](c2cc(Nc3ccc(CN4CCN(C)CC4)c(F)c3)n[nH]2)C1 [Compound 134],2.14 nM,,1130 nM,"IC50 (CDK1/Cyclin B): 664 nM; Papp A→B at 2 h, 2 µM [4, 6]: 7.08 ×10⁻⁶ cm/s; Papp B→A at 2 h, 2 µM [4, 6]: 23.4 ×10⁻⁶ cm/s; efflux ratio at 2 h, 2 µM [4, 6]: 3.3"
CC1(C)CCN1C(=O)O[C@@H]1CO[C@H](c2cc(NC(=O)Cc3cccc(P(C)(C)=O)c3)n[nH]2)C1 [Compound 30],8.22 nM,,,
"COCc1cc(C(=O)Nc2cc(C3CCC(OC(=O)NC(C)C)C3)[nH]n2)n(C)n1 (stereo not shown) [PF-07104091, reference compound]",,,,"Papp A→B at 2 h, 2 µM [4, 7]: 0.106 ×10⁻⁶ cm/s; Papp B→A at 2 h, 2 µM [4, 7]: 25.5 ×10⁻⁶ cm/s; efflux ratio at 2 h, 2 µM [4, 7]: 241; Papp A→B at 2 h, 2 µM [4, 6]: 4.3 ×10⁻⁶ cm/s; Papp B→A at 2 h, 2 µM [4, 6]: 37 ×10⁻⁶ cm/s; efflux ratio at 2 h, 2 µM [4, 6]: 8.57"
CC(C)NC(=O)O[C@@H]1CC[C@H](c2cc(Nc3ccc(N4CCN(CC(F)(F)F)CC4)cc3)n[nH]2)C1 [Compound 128],,,9950 nM,IC50 (CDK2/Cyclin E1): 12.8 nM
CC(C)NC(=O)O[C@@H]1CC[C@H](c2cc(Nc3ccc(C4CCN(C)CC4)cn3)n[nH]2)C1 [Compound 51],6.9 nM,,3530 nM,IC50 (CDK1/Cyclin B): 154 nM
C=C(C)c1ccncc1O[C@@H]1CC[C@H](c2cc(NC(=O)Cc3ccc(N4CCCC4=O)cc3)n[nH]2)C1 [Compound 26],0.92 nM,0.27 nM,388 nM,
CC(C)NC(=O)O[C@@H]1CC[C@H](c2cc(NC3CCN(S(C)(=O)=O)CC3)n[nH]2)C1 [Compound 8],,3110 nM,> 10000 nM,
CC(C)NC(=O)O[C@@H]1CC[C@H](c2cc(NC(=O)c3cc(CS(=O)(=O)C4CC4)nn3C)n[nH]2)C1 [Compound 13],3.37 nM,,2150 nM,IC50 (CDK1/Cyclin B): 48.2 nM; Remaining amount% at 60 min Rat [1]: 71.2%; Remaining amount% at 60 min Human [2]: 80.0%
COCc1cc(C(=O)Nc2cc([C@H]3CC[C@@H](OC(=O)NC(C)(C)C#N)C3)[nH]n2)n(C)n1 [Compound 5],,845 nM,> 10000 nM,
CC(C)NC(=O)O[C@@H]1CC[C@H](c2cc(Nc3ccc(N4CCN(C)CC4)cn3)n[nH]2)C1 [Compound 49],10.7 nM,,1300 nM,"IC50 (CDK1/Cyclin B): 724 nM; Papp A→B at 2 h, 2 µM [4, 6]: 2.4 ×10⁻⁶ cm/s; Papp B→A at 2 h, 2 µM [4, 6]: 12.2 ×10⁻⁶ cm/s; efflux ratio at 2 h, 2 µM [4, 6]: 5.09"
C=C(C)c1ccncc1O[C@@H]1CO[C@H](c2cc(NC(=O)Cc3cccc(P(C)(C)=O)c3)n[nH]2)C1 [Compound 31],23.6 nM,496 nM,,

# More lines, main results first:
IC50 (CDK2/Cyclin E1; [5]),IC50 (CDK1/Cyclin B; [8]),SMILES,IC50 (HCT116 cells),also measured
1.07 nM,,COCc1cc(C(=O)Nc2cc([C@H]3C[C@@H](F)[C@@H](OC(=O)NC(C)C)C3)[nH]n2)n(C)n1 [Compound 11],1610 nM,Remaining amount% at 60 min Rat [1]: 104%; Remaining amount% at 60 min Human [2]: 105%; Remaining amount% at 60 min Dog [3]: 99%
> 1000 nM,,COCc1cc(C(=O)Nc2nnc([C@H]3CC[C@@H](OC(=O)NC(C)C)C3)s2)n(C)n1 [Compound 42],,
5.53 nM,1020 nM,CC(C)NC(=O)O[C@@H]1CC[C@H](c2cc(Nc3ccc(CN4CCNCC4)cc3)n[nH]2)C1 [Compound 136],8430 nM,
8.71 nM,,COCc1cc(C(=O)Nc2cc([C@H]3CC[C@@H](OC(=O)N4CC5(CCN(C)CC5)C4)C3)[nH]n2)n(C)n1 [Compound 10],7110 nM,Remaining amount% at 60 min Rat [1]: 92%; Remaining amount% at 60 min Human [2]: 103%; Remaining amount% at 60 min Dog [3]: 95%
2.58 nM,589 nM,CC1(C)CCN1C(=O)O[C@@H]1CC[C@H](c2cc(NC(=O)Cc3ccc(N4CCCC4=O)cc3)n[nH]2)C1 [Compound 24],,Remaining amount% at 60 min Rat [1]: 22.8%; Remaining amount% at 60 min Human [2]: 15.4%
3.74 nM,976 nM,CCN1CCN(Cc2ccc(Nc3cc([C@H]4CC[C@@H](OC(=O)NC(C)C)C4)[nH]n3)cc2)CC1 [Compound 137],1510 nM,
> 1000 nM,,COCc1cc(C(=O)Nc2[nH]nc3c2C[C@@H](OC(=O)NC(C)C)CC3)n(C)n1 [Compound 41],,
> 1000 nM,,COCc1cc(C(=O)Nc2cnc([C@H]3CC[C@@H](OC(=O)NC(C)C)C3)s2)n(C)n1 [Compound 36],,
5.01 nM,1850 nM,CC1(C)CCN1C(=O)O[C@@H]1CC[C@H](c2cc(NC(=O)Cc3cccc(P(C)(C)=O)c3)n[nH]2)C1 [Compound 23],,
0.61 nM,28.5 nM,CCS(=O)(=O)Cc1cc(C(=O)Nc2cc([C@H]3CC[C@@H](OC(=O)NC(C)C)C3)[nH]n2)n(C)n1 [Compound 12],1860 nM,
3.09 nM,11.2 nM,C=C(C)c1ccncc1O[C@@H]1CC[C@H](c2cc(NC(=O)Cc3cccc(P(C)(C)=O)c3)n[nH]2)C1 [Compound 25],,
